LC retention time data for 83 compounds are collected here from the RepoRT retention time repository.

SMILES strings stand for the structures.

The nature of this data set: HILIC, Waters ACQUITY UPLC BEH Amide, 100 × 2.1 mm, 1.7 µm; A: water + 0.125% formic acid + 10 mM ammonium formate; B: 5% water + 95% acetonitrile + 0.125% formic acid + 10 mM ammonium formate; gradient (min/%B) 0/100 2/100 7.7/70 9.5/40 10.25/30 12.75/100 17/100. To be noted: stereoisomer not certain.
Consider `NC1CCCCC1` [Cyclohexanamine], for which the LC retention time is 5.1 min. Next, `Oc1cc(O)cc(O)c1` [Phloroglucinol]: 1.15 min; `O=c1cccc[nH]1` [2-Pyridone]: 2.05 min; `CNCC(O)c1ccc(O)cc1` (stereo not drawn) [Synephrine]: 5.67 min. To `NC(CCC(=O)NC(Cc1ccc(O)cc1)C(=O)O)C(=O)O` (stereo not drawn) [gamma-Glutamyltyrosine] belongs 8.52 min; to `COc1cccc(C2(O)CCCCC2CN(C)C)c1` (stereo not drawn) [Tramadol], 2.52 min. Take `CCN1CCCC1CNC(=O)c1cc(S(N)(=O)=O)ccc1OC` (stereo not drawn) [Levosulpiride]: the LC retention time turned out to be 4.37 min. Next, `O=C(O)CCC(=O)O` [Succinic acid]: 4.46 min; `CC(C)c1ccc2oc3nc(N)c(C(=O)O)cc3c(=O)c2c1` [Amlexanox]: 1.81 min; `CC12CCC3C(CCC4CC(O)CCC43C)C1CCC2O` (stereo not drawn) [Androstane-3,17-diol]: 0.96 min.

As to `CCn1cc(C(=O)O)c(=O)c2cc(F)c(N3CCN(C)CC3)cc21` [Pefloxacin], the LC retention time was 3.65 min. Next, `CCOC(=O)C(C)Oc1ccc(Oc2nc3ccc(Cl)cc3o2)cc1` (stereo not drawn) [Fenoxaprop-P-ethyl]: 1.01 min. Regarding `CCCCCC(O)C=CC=O` (stereo not drawn) [4-Hydroxynonenal], the LC retention time is 1.07 min. Next, `Nc1ncnc2c1ncn2C1CC(O)C(CO)O1` (stereo not drawn) [2'-Deoxyadenosine]: 3.92 min; `NC(Cc1ccc(O)cc1)C(=O)NC(Cc1ccc(O)cc1)C(=O)O` (stereo not drawn) [Tyr-Tyr]: 7.38 min; `COc1cc(N)c(Cl)cc1C(=O)NC1CCN(CCCOc2ccc(F)cc2)CC1OC` (stereo not drawn) [Cisapride]: 2.28 min. Next, `CC(C)=CCN1CCC2(C)c3cc(O)ccc3CC1C2C` (stereo not drawn) [Pentazocine]: 2.65 min; `COc1cc(/C=C/C(=O)O)ccc1O` [Ferulic acid]: 1.36 min; `O=C(O)C=Cc1ccc(O)cc1` [p-Coumaric acid]: 1.38 min. Next, `COC(=O)c1ccccc1C(=O)OC` [Dimethyl phthalate]: 1.04 min; `O=c1[nH]c(=O)n(C2CCCO2)cc1F` (stereo not drawn) [Tegafur]: 1.22 min. Turning to `CCCCc1nc(Cl)c(CO)n1Cc1ccc(-c2ccccc2-c2nn[nH]n2)cc1` [Losartan], the LC retention time came out at 1.27 min. On to `C=C(OP(=O)(O)O)C(=O)O` [Phosphoenolpyruvic acid], for which the LC retention time is 9.05 min. In the case of `O=C1CCCCC1=O` [1,2-Cyclohexanedione], the LC retention time came to 5.77 min. Next, `O=c1ccn(C2OC(CO)C(O)C2O)c(=S)[nH]1` (stereo not drawn) [2-Thiouridine]: 2.48 min; `Cn1c(=O)[nH]c2[nH]c(=O)n(C)c2c1=O` [1,7-Dimethyluric acid]: 4.09 min; `O=C(CCNNC(=O)c1ccncc1)NCc1ccccc1` [Nialamide]: 1.69 min. To `COC(=O)C1C(O)CC2CCC1N2C` (stereo not drawn) [Ecgonine methylester] belongs 4.18 min; to `CC(C(=O)O)c1ccc(CC2CCCC2=O)cc1` (stereo not drawn) [Loxoprofen], 1.09 min. Next, `CC1C(=O)Nc2ccccc21` (stereo not drawn) [3-Methyloxyindole]: 1.07 min; `C=CCC1C=C(C)CC(C)CC(OC)C2OC(O)(C(=O)C(=O)N3CCCCC3C(=O)OC(C(C)=CC3CCC(O)C(OC)C3)C(C)C(O)CC1=O)C(C)CC2OC` (stereo not drawn) [Tacrolimus]: 1.07 min. Turning to `O=C(O)c1cccnc1` [Nicotinic acid], the LC retention time stood at 4.01 min. Next, `NC(=O)C=CC(=O)O` [Maleamic acid]: 1.12 min; `Cc1ncc2n1-c1ccc(Cl)cc1C(c1ccccc1F)=NC2` [Midazolam]: 1.29 min. Next, `NC(=O)Cc1ccccc1` [2-Phenylacetamide]: 1.26 min; `Nc1nc2ccc(Cl)cc2c2nc(-c3ccco3)nn12`: 1.07 min; `CC(Oc1c(Cl)cccc1Cl)C1=NCCN1` (stereo not drawn) [Lofexidine]: 2.65 min. To `CC1OC(OCC2OC(Oc3c(-c4ccc(O)cc4)oc4cc(O)cc(O)c4c3=O)C(O)C(O)C2O)C(O)C(O)C1O` (stereo not drawn) [Kaempferol-3-O-rutinoside] belongs 6.09 min. With `CC(=O)NC(CS)C(=O)O` (stereo not drawn) [N-Acetylcysteine], the LC retention time is 5.28 min. Next, `Oc1ccc(C2CNCCc3c2cc(O)c(O)c3Cl)cc1` (stereo not drawn) [Fenoldopam]: 5.68 min; `CCCCCC=CCC=CCC=CCC=CCCCC(=O)NCCc1ccc(O)c(O)c1` [Arachidonyl dopamine]: 1.14 min; `CC(=O)NCCc1cnc[nH]1` [N-omega-Acetylhistamine]: 6 min. As for `C=C(C)CN1CCC23c4c5ccc(O)c4OC2c2[nH]c4ccccc4c2CC3(O)C1C5` (stereo not drawn), the LC retention time worked out at 2.93 min. As to `NC(=O)CC(N)C(=O)O` (stereo not drawn) [Asparagine], the LC retention time amounted to 8.81 min. Next, `CN1C(=O)CN=C(c2ccccc2F)c2cc([N+](=O)[O-])ccc21` [Flunitrazepam]: 1.05 min; `CCC(=O)NCC(=O)O` [2-Propanamidoacetic acid]: 5.37 min; `O=C(C=Cc1ccccc1O)c1ccccc1` [2-Hydroxychalcone]: 1.01 min. Next, `CC(C)(C)NC(=O)C1CN(Cc2cccnc2)CCN1CC(O)CC(Cc1ccccc1)C(=O)NC1c2ccccc2CC1O` (stereo not drawn) [Indinavir]: 2.17 min; `c1c[nH]cn1` [Imidazole]: 4.53 min; `COCCOC(=O)C1=C(C)NC(C)=C(C(=O)OC(C)C)C1c1cccc([N+](=O)[O-])c1` (stereo not drawn) [Nimodipine]: 0.94 min. Next, `Cc1nc2ccc(CN(C)c3ccc(C(=O)NC(CCC(=O)O)C(=O)O)s3)cc2c(=O)[nH]1` (stereo not drawn) [Raltitrexed]: 7.35 min; `NC(=O)OCCCc1ccccc1` [Phenprobamate]: 1.01 min; `Clc1ccc2c(c1)CCc1cccnc1C2=C1CCNCC1` [Desloratadine]: 4.9 min. Take `O=C(O)C(O)c1ccc(O)c(O)c1` (stereo not drawn) [3,4-Dihydroxymandelic acid]: the LC retention time was determined as 2.3 min. Consider `CCC(=O)OC(CC(=O)[O-])C[N+](C)(C)C` (stereo not drawn) [Propionylcarnitine], for which the LC retention time is 6.41 min. Next, `NCCCCCN` [Cadaverine]: 8.99 min; `CC(C)C(NC(=O)C(N)CCCN=C(N)N)C(=O)O` (stereo not drawn) [Arg-Val]: 9.3 min.

For the compound `COC(=O)CCc1ccc(OCC(O)CNC(C)C)cc1` (stereo not drawn) [Esmolol], the LC retention time is 3.13 min. `CC(=O)NC(CC(=O)O)C(=O)NC(CCC(=O)O)C(=O)O` (stereo not drawn) [N-Acetyl-Asp-Glu]: the LC retention time was 8.11 min. To `COC1C(O)C(CO)OC1n1cc(C)c(N)nc1=O` (stereo not drawn) [2'-O-Methyl-5-methylcytidine] belongs 4.93 min; to `CN(CC=CC#CC(C)(C)C)Cc1cccc2ccccc12` [Terbinafine], 1.33 min; to `O=P(O)(O)OCC1OC(O)C(O)C(O)C1O` (stereo not drawn) [Glucose-6-phosphate], 9.86 min. To `Cc1ncc(CO)c(C(=O)O)c1O` [4-Pyridoxic acid] belongs 2.66 min; to `CC(C)(C)NC(=O)C1CCC2C3CCC4NC(=O)C=CC4(C)C3CCC12C` (stereo not drawn) [Finasteride], 1.17 min.

On to `COC(=O)CC(O)(CCCC(C)(C)O)C(=O)OC1C(OC)=CC23CCCN2CCc2cc4c(cc2C13)OCO4` (stereo not drawn) [Homoharringtonine], for which the LC retention time worked out at 3.24 min. To `O=c1c(-c2ccc(O)cc2)coc2cc(O)ccc12` [Daidzein] belongs 1.39 min. With `O=C(O)Cc1c[nH]c2ccc(O)cc12` [5-Hydroxy-3-indoleacetic acid], the LC retention time stood at 1.78 min. Next, `OCc1cccnc1` [3-Pyridinemthanol]: 1.41 min. To `CCCc1nc2c(C)cc(-c3nc4ccccc4n3C)cc2n1Cc1ccc(-c2ccccc2C(=O)O)cc1` [Telmisartan] belongs 1.25 min; to `Oc1cc(O)c2c(c1)OC(c1cc(O)c(O)c(O)c1)C(O)C2` (stereo not drawn) [Epigallocatechin], 10.2 min.

As to `COC(=O)N1CCN(C(=O)Cc2ccc(Cl)c(Cl)c2)C(CN2CCCC2)C1` (stereo not drawn), the LC retention time amounted to 2.56 min. To `NCCCCN` [Putrescine] belongs 9.3 min.

As for `O=C(c1ccccc1)c1ccc2n1CCC2C(=O)O` (stereo not drawn) [Toradol], the LC retention time came out at 1.29 min. With `CNC(CC(=O)O)C(=O)O` (stereo not drawn) [N-Methylaspartic acid], the LC retention time turned out to be 2.53 min. Next, `Nc1ncnc2c1ncn2C1CC2OP(=O)(O)OCC2O1` (stereo not drawn) [3',5'-Cyclic dAMP]: 7.29 min; `CCC(C)C(NC)C(=O)O` (stereo not drawn) [N-Methylisoleucine]: 6.44 min. To `Nc1nc2c(ncn2CCC(CO)CO)c(=O)[nH]1` [Penciclovir] belongs 6.71 min; to `Nc1ccc(O)c(C(=O)O)c1`, 3.89 min.

With `CN1C2CC(OC(=O)C(CO)c3ccccc3)CC1C1OC12` (stereo not drawn) [Scopolamine], the LC retention time stood at 3.75 min. Next, `CC12CCC3C(CCC4=CC(=O)CCC43C)C1CCC2=O` (stereo not drawn) [Androstenedione]: 1.09 min; `O=c1n(CCCN2CCN(c3cccc(Cl)c3)CC2)nc2ccccn12` [Trazodone]: 2.38 min; `CNC1CC(c2ccc(Cl)c(Cl)c2)c2ccccc21` (stereo not drawn) [Indatraline]: 2.88 min.

Turning to `Nc1nc(N)nc(-c2cc(Cl)ccc2Cl)n1` [Irsogladine], the LC retention time was 1.25 min.
